What was measured:
[1] = rats, recombinant L.IGF-I administered after ischemia; cited from earlier work
cardiac myocytes = experiment: Induction of endogenous MGF expression by PMA, real time RT-PCR; format: cell-based
Experimental: Primary cultures of cardiac myocytes were cultured in serum free media for 24 hours prior to the addition of PMA (200 nM). After 30 min total RNA was extracted and MGF gene expression was assayed using real time RT-PCR. […] B. A repeat of the initial experiment but in the third group PMA was added to the cultures without changing the media. MGF expression is increased to a great extent than when PMA is added with fresh media.
In order to investigate which signal appear to modulate MGF expression in cardiac myocytes, several drugs were applied to cardiomyocyte cultures. These in turn activate signal transduction molecules either directly or indirectly through receptor coupled molecules. One such drug is phorbol myristate acetate (PMA), a phorbol ester that specifically activates the Protein Kinase C family of serine/threonine signaling kinases. […] When the amount of MGF is compared to the amount of liver-type IGF in the control conditions, there is substantially less in the cardiac myocytes. […] When the same experiment was repeated but the PMA was added to myocyte cultures in which the media had not been changed for 24 hours prior to the addition of the PMA, the increase in MGF expression is even greater than when PMA is added along with fresh media (FIG. 5B).

[2] = animal models of cardiomyopathy and clinical trials; cited from earlier work

## recombinant L.IGF-I: recombinant systemic, liver-type IGF-I
[1]
  cell death following transient myocardial ischemia: reduced cell death

## CCCCCCCCCCCCCC(=O)O[C@@H]1[C@@H](C)[C@@]2(O)[C@@H](C=C(CO)C[C@]3(O)C(=O)C(C)=C[C@@H]23)[C@@H]2C(C)(C)[C@]12OC(C)=O [PMA, phorbol myristate acetate]
Cardiac myocytes; PMA 200 nM, 30 min
  level of IGF expression: does not change
Cardiac myocytes; PMA 200 nM, 30 min, serum free media 24 hours, added with fresh media
  expression of the endogenous MGF gene: significant increase
Cardiac myocytes; PMA added to cultures whose media had not been changed for 24 hours, versus PMA with fresh media
  increase in MGF expression, media not changed: even greater

## growth hormone: growth hormone; induces expression of systemic insulin-like growth factors via the liver
[2]
  cardiac function: Significant improvement

— patent US9919031B2, “Use of the insulin-like-growth factor 1 splice variant MGF for the prevention of myocardial damage” (THE BOARD OF TRUSTEES OF UNIVERSITY OF ILLINOIS, priority 2002, dated 2018)
